Source: publication PMC6874057, “Synthesis of Chalcone Derivatives: Inducing Apoptosis of HepG2 Cells via Regulating Reactive Oxygen Species and Mitochondrial Pathway” (Frontiers in Pharmacology, 2019)

Experiments:
[1] = tested on: A549; experiment: MTT cell viability assay, A549; format: cell-based, human; details: mean ± SE
Description: (§1) HeLa, A549, HepG2, HL-60, and WI-38 cell lines were incubated in DMEM solution containing 10% FBS for 48 h. The incubated tumor cells were seeded into 96-well plates (5 × 10^3 cells/well) to make them attach for 12 h. Afterwards, the cells were processed with the various concentrations of the synthetic compounds and 5-FU for 48 h. After removing the cell culture supernatant, 10 µl MTT (5 mg/ml) solution was dripped into the cells to generate a formazan product, which were dissolved by dimethyl sulfoxide (DMSO) 4 h later. Multifunction microplate reader (Bio-Rad Laboratories, Shanghai, China) was adopted to measure the absorbance at the wave length of 490 nm. The IC50 (the lowest drug concentration causing 50% of the tumor cells inhibition) was then calculated using GraphPad Prism Software (version 5.02) and used to indicate the cytotoxic effect of the target compounds on the selected tumor cells.

[2] = tested on: Hela; experiment: MTT cell viability assay, Hela; format: cell-based, human; details: 48 h, mean ± SE
Description: as §1

[3] = tested on: HepG2; experiment: MTT cell viability assay, HepG2; format: cell-based, human; details: mean ± SE
Description: as §1

[4] = tested on: HL-60; experiment: MTT cell viability assay, HL-60; format: cell-based, human; details: mean ± SE
Description: as §1

[5] = tested on: WI-38; experiment: MTT cell viability assay, normal cell line WI-38; format: cell-based, human; details: normal cells, mean ± SE
Description: as §1

[6] = tested on: adherent tumor cell lines (HepG2, A549 and Hela); experiment: MTT assay, summary over adherent tumor cell lines; format: cell-based; details: Homo sapiens; span of IC50 over compounds a11-a14 and adherent tumor cell lines; read-out: IC50 range over cell lines
Description: as §1

[7] = tested on: mitochondrial membrane potential in HepG2 cells; experiment: Mitochondrial membrane potential by JC-1 probe; format: cell-based, human; details: CCCP for 20 min, without a14, positive control
Description: JC-1 probe was used to detect changes in MMP. Firstly, HepG2 cells (3 × 10^5 cells/well) were seeded into a six-well plate overnight for adherence, and then treated with various concentrations of a14 for 48 h. Next, the cells were treated with JC-1 (2.5 µg/ml) at 37°C for 10 min in the dark and rinsed three times with PBS. Then, the six-well plate was placed under the fluorescence microscope (excitation 480/30× nm, emission 515 nm) to observe the fluorescence color and intensity of JC-1 in the cells. In addition, HepG2 cells (3 × 10^5 cells/well) were inoculated on another six-well plate overnight to allow adherence, and then treated with a14 (50 µM) for 0, 12, 24, 36, and 48 h, adding CCCP (without a14) for 20 min to completely lose the mitochondrial membrane potential. Cells were then incubated with JC-1 (2.5 µg/ml) at 37°C in the dark for 10 min and rinsed with PBS for three times. Fluorescence intensity of residual JC-1 in cells was measured by Beckman Coulter flow cytometer (FITC, 525/40BP). The data obtained was analyzed by CytExpert 2.0 software imbedded in the flow cytometry.

Compound | IC50 ([1]; Homo sapiens, A549, 48 h) [µM] | IC50 ([2]; Homo sapiens, HeLa) [µM] | IC50 ([3]; Homo sapiens, HepG2, 48 h) [µM] | IC50 ([4]; Homo sapiens, HL-60, 48 h) [µM] | IC50 ([5]; Homo sapiens, WI-38, 48 h) [µM] | IC50 [6] [µM] | IC50 ([1]; 48 h) [µM] | IC50 [2] [µM] | IC50 ([3]; 48 h) [µM] | IC50 ([4]; 48 h) [µM] | IC50 ([5]; 48 h) [µM] | JC-1 (FITC), right of the gate line (green fluorescence) [7] [%]
COc1ccccc1/C=C/C(=O)c1ccc(O)c(C(N)=O)c1 [a9] | 57.6 ± 1.42 | 65.1 ± 1.34 | 80.3 ± 1.87 | 210 ± 3.03 | 98.5 ± 4.91 | – | – | – | – | – | – | –
COc1ccc(/C=C/C(=O)c2ccc(O)c(C(N)=O)c2)cc1 [a11] | 35.8 ± 1.02 | 48.2 ± 0.56 | 44.7 ± 1.56 | 245 ± 5.54 | 89.5 ± 6.61 | 23.3 to 54.4 | – | – | – | – | – | –
Cc1cccc(/C=C/C(=O)c2ccc(O)c(C(N)=O)c2)c1 [a7] | 40.7 ± 3.68 | 40.7 ± 1.33 | 55.6 ± 3.23 | 111 ± 1.57 | 81.7 ± 1.13 | – | – | – | – | – | – | –
Cc1ccc(/C=C/C(=O)c2ccc(O)c(C(N)=O)c2)cc1 [a8] | 65 ± 2.35 | 53.6 ± 0.67 | 57.4 ± 3.07 | 301 ± 3.53 | 147 ± 13.2 | – | – | – | – | – | – | –
NC(=O)c1cc(C(=O)/C=C/c2ccc(Br)cc2)ccc1O [a4] | 48.2 ± 2.25 | 65.9 ± 7.8 | 46.41 ± 0.05 | 110 ± 2.04 | 100 ± 11.5 | – | – | – | – | – | – | –
NC(=O)c1cc(C(=O)/C=C/c2ccccc2)ccc1O [a5] | 57.2 ± 1.53 | 82.2 ± 4.8 | 68.1 ± 5.51 | 108 ± 3.5 | 127 ± 6.6 | – | – | – | – | – | – | –
NC(=O)c1cc(C(=O)/C=C/c2ccc(F)cc2)ccc1O [a1] | 107 ± 2.14 | 125 ± 6.92 | 135 ± 9.79 | 131 ± 5.38 | 229 ± 7.38 | – | – | – | – | – | – | –
NC(=O)c1cc(C(=O)/C=C/c2cccc(Br)c2)ccc1O [a3] | 59.6 ± 5.23 | 77.6 ± 4.74 | 71.2 ± 4.63 | 141 ± 5.19 | 126.2 ± 0.46 | – | – | – | – | – | – | –
NC(=O)c1cc(C(=O)/C=C/c2cccc(Cl)c2)ccc1O [a2] | 82.5 ± 3.61 | 98.9 ± 2.9 | 77 ± 1.34 | 135 ± 2.45 | 122 ± 2.33 | – | – | – | – | – | – | –
COc1cccc(/C=C/C(=O)c2ccc(O)c(C(N)=O)c2)c1 [a10] | 45.6 ± 1.05 | 54.4 ± 1.11 | 70.8 ± 4.03 | 131 ± 4.64 | 93.3 ± 3.13 | – | – | – | – | – | – | –
O=c1[nH]cc(F)c(=O)[nH]1 [5-FU, reference compound] | – | – | – | – | – | – | 53.7 ± 1.16 | 35.2 ± 1.39 | 42.9 ± 2.88 | 165 ± 4.74 | 62.8 ± 2.03 | –
carbonyl cyanide m-chlorophenyl hydrazine [CCCP, reference compound] | – | – | – | – | – | – | – | – | – | – | – | 99.98
COc1ccc(/C=C/C(=O)c2ccc(O)c(C(N)=O)c2)cc1OC [a13] | 37.6 ± 1.11 | 31.8 ± 1.62 | 50.3 ± 4.03 | 134 ± 4.44 | 118 ± 3.53 | 23.3 to 54.4 | – | – | – | – | – | –
COc1ccc(/C=C/C(=O)c2ccc(O)c(C(N)=O)c2)c(OC)c1 [a12] | 41.2 ± 2.15 | 35.3 ± 2.13 | 54.37 ± 0.52 | 160 ± 3.59 | 123 ± 2.45 | 23.3 to 54.4 | – | – | – | – | – | –
Cc1ccccc1/C=C/C(=O)c1ccc(O)c(C(N)=O)c1 [a6] | 51.3 ± 2.11 | 74.8 ± 2.33 | 75.4 ± 3.27 | 213 ± 2.98 | 109 ± 1.49 | – | – | – | – | – | – | –
